In article PMC7465886, “4-(N-Alkyl- and -Acyl-amino)-1,2,4-triazole-3-thione Analogs as Metallo-β-Lactamase Inhibitors: Impact of 4-Linker on Potency and Spectrum of Inhibition” (Biomolecules, 2020):
Like-named read-outs stand apart in the source and are kept apart here.

Assays:
IMP-1 [1] = target: T1, IMP-1 (Serratia marcescens, UniProt P52699); assay: MBL inhibition, reporter substrate method, IMP-1; format: biochemical; details: for inhibition at 100 µM: read-out: Inhibition of IMP-1 (dash in Ki column)
T1 construct: made in house; host or cells: E. coli BL21(DE3) derivative, pET-9a
T1 sequence (P52699 19-246 limits assumed): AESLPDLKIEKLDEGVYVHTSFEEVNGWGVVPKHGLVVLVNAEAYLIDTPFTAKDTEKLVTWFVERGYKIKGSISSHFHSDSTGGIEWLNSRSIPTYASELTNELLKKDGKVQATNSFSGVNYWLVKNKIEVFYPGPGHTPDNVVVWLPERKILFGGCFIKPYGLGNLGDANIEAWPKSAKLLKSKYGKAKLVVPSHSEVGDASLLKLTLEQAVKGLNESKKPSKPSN
Protocol: (§1) Compounds were prepared in DMSO at a final concentration of 50 mM prior to dilution in the assay buffer. The reaction rate was measured as the variation of absorbance observed upon substrate hydrolysis in a UV-Vis spectrophotometer or microplate reader at a wavelength of 300 nm (imipenem, meropenem), 260 nm (cefotaxime), or 482 nm (nitrocefin) and in the presence of a purified MBL enzyme (such as VIM-1, VIM-2, VIM-4, NDM-1, and IMP-1, at a final concentration ranging from 1 to 70 nM).
(§2) These enzymes were overproduced in derivatives of E. coli BL21(DE3) carrying a pET-9 a (IMP-1, VIM-1, VIM-2, and VIM-4) or pET-15 b (NDM-1) vector into which the metallo-β-lactamase-encoding open reading frame was cloned. Bacterial strains were grown in the auto-inducing medium, ZYP-5052, supplemented with 50 μg/mL kanamycin for 24 h at 37 °C [38]. IMP-1, VIM-1, VIM-2, and VIM-4 were purified by ion-exchange and gel filtration chromatography using an AKTA Purifier platform (GE Healthcare, Uppsala, Sweden) as previously described. NDM-1 (residues 37-270) was produced as an amino-terminal 6 xHis-tag fusion protein and was purified using affinity chromatography. After growth for 26 h at 25 °C, bacterial cells were harvested by centrifugation (10,000× g, 30 min, 4 °C), resuspended in 10 mM HEPES buffer (pH 7.5) containing 0.15 M NaCl (buffer A) in one-fifth of the original culture volume, and lysed by sonication. Cellular debris was removed by centrifugation (12,000× g, 40 min, 4 °C). The clarified sample was loaded on a HisTrap HP column (bed volume, 5 mL; GE Healthcare), followed by a wash step (25 mL) with buffer A containing 20 mM imidazole. Proteins were eluted using buffer A containing 350 mM imidazole. The resulting protein sample was desalted (HiPrep 26/10 Desalting column, GE Healthcare) using 20 mM triethanolamine (pH 7.2) supplemented with 50 μM ZnSO4 and concentrated using an Amicon Ultra-15 (MW cut-off, 10 kDa; Millipore, Burlington, MA, USA). The concentrated sample was loaded on a Superdex 75 prep grade column (XK16/100 column; bed volume, 140 mL; GE Healthcare) and the proteins eluted with buffer A containing 50 μM ZnSO4. The active fractions were pooled and stored at −20 °C. The purity of the protein preparations was estimated >95% by SDS-PAGE analysis. The authenticity of the enzyme preparations was confirmed by electron spray ionization mass spectrometry, as previously described.
(§3) The inhibition constants (Ki) were determined on the basis of a model of competitive inhibition by analyzing the dependence of the ratio v0/vi (v0, hydrolysis velocity in the absence of inhibitor; vi, hydrolysis velocity in the presence of inhibitor) as a function of [I] as already described. The slope of the plot of v0/vi vs. [I], which corresponds to Km^S/(Km^S + [S])Ki (where Km^S is the Km value of the reporter substrate and [S] its concentration in the reaction mixture) and allowed the calculation of the Ki value. Alternatively, a Dixon plot analysis was carried out by measuring the initial hydrolysis rates in the presence of variable concentrations of inhibitor and substrate. This allowed Ki values to be determined and supported the hypothesis that the various compounds behaved as competitive inhibitors of the various tested enzymes. The assays were performed in triplicate.

VIM-2 [2] = target: T2, VIM-2 (Escherichia coli, UniProt Q5U7L7); assay: MBL inhibition, reporter substrate method, VIM-2; format: biochemical; details: hydrazine and hydrazide series; read-out: Ki Value VIM-2
T2 construct: made in house; host or cells: E. coli BL21(DE3) derivative, pET-9a
Protocol: as §1, §2, §3

NDM-1 [3] = target: T3, NDM-1 (Klebsiella pneumoniae, UniProt C7C422); assay: MBL inhibition, reporter substrate method, NDM-1; format: biochemical; details: for inhibition at 100 µM: read-out: Inhibition of NDM-1 (dash in Ki column)
T3 sequence (C7C422 37-270 limits assumed): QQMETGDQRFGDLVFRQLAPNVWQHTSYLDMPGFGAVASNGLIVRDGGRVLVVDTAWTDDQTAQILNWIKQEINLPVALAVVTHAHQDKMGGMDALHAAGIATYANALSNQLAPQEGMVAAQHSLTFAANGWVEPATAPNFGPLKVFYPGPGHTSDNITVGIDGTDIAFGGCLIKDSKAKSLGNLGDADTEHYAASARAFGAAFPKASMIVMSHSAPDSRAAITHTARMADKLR
Protocol: as §1, §2, §3

VIM-1 = target: T4, VIM-1 (Pseudomonas aeruginosa, UniProt A0A0F7KYQ8); assay: MBL inhibition, reporter substrate method, VIM-1; format: biochemical
T4 construct: made in house; host or cells: E. coli BL21(DE3) derivative, pET-9a
Protocol: as §1, §2, §3

VIM-4 [4] = target: T5, VIM-4 (Pseudomonas aeruginosa, UniProt A0A0F7KYQ8, S205R); assay: MBL inhibition, reporter substrate method, VIM-4; format: biochemical
T5 construct: made in house; host or cells: E. coli BL21(DE3) derivative, pET-9a
Protocol: as §1, §2, §3

CphA = target: T6, CphA (Aeromonas hydrophila, UniProt P26918); assay: MBL inhibition, CphA (imipenem hydrolysis); format: biochemical
T6 construct: made in house
T6 sequence (P26918 28-254): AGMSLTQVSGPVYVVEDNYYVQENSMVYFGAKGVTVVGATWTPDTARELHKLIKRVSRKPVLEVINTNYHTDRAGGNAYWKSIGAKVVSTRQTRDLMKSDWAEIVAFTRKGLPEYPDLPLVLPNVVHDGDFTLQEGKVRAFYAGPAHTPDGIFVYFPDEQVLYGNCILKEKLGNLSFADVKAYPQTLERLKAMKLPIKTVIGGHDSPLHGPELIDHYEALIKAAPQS
Protocol: Compounds were prepared as 10 mM solutions in DMSO before dilution with appropriate buffers. Buffers were 25 mM Hepes pH 7.5 for CphA or 25 mM Hepes pH 7.5, 50 µM ZnCl2 for L1. The rates in the absence of inhibitor were not modified by addition of 1% DMSO. CphA and L1 enzymes, purified as previously described, were used at concentrations between 0.2 and 0.8 nM, respectively. The enzyme and the inhibitor (100 µM) were pre-incubated for 30 min in a volume of 495 µL at room temperature. The hydrolysis of a solution of 100 µM imipenem for CphA was monitored by following the absorbance variation at 300 nm using a Specord 50 PLUS spectrophotometer (Analytik Jena, Jena, Germany). For L1, the reporter substrate was nitrocefin (100 µM). The enzyme activity was measured by following the absorbance variation at 482 nm. The substrate hydrolysis was done at 30 °C. The activity was tested by measuring the initial rates in three samples without inhibitor that allowed to determine the percentage of residual β-lactamase activity in the presence of inhibitors. […] The Hanes linearization of the Henri–Michaelis equation was used, and Ki was calculated on the basis of the following equation, v = (Vmax.S)/[S + Km(1 + I/Ki)]. […]

L1 = target: T7, L1 (Stenotrophomonas maltophilia, UniProt P52700); assay: MBL inhibition, L1 (nitrocefin hydrolysis); format: biochemical; details: for inhibition at 100 µM: 100 μM inhibitor, read-out: Inhibition of L1 (dash)
T7 construct: made in house
T7 sequence (P52700 34-290): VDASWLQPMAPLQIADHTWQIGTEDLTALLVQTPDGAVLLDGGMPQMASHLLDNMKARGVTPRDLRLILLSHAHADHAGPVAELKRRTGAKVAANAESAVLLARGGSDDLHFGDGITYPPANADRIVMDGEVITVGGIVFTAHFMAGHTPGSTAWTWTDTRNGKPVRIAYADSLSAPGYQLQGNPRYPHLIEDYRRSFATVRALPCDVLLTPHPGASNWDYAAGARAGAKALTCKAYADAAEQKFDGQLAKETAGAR
Protocol: Compounds were prepared as 10 mM solutions in DMSO before dilution with appropriate buffers. Buffers were 25 mM Hepes pH 7.5 for CphA or 25 mM Hepes pH 7.5, 50 µM ZnCl2 for L1. The rates in the absence of inhibitor were not modified by addition of 1% DMSO. CphA and L1 enzymes, purified as previously described, were used at concentrations between 0.2 and 0.8 nM, respectively. The enzyme and the inhibitor (100 µM) were pre-incubated for 30 min in a volume of 495 µL at room temperature. The hydrolysis of a solution of 100 µM imipenem for CphA was monitored by following the absorbance variation at 300 nm using a Specord 50 PLUS spectrophotometer (Analytik Jena, Jena, Germany). For L1, the reporter substrate was nitrocefin (100 µM). The enzyme activity was measured by following the absorbance variation at 482 nm. The substrate hydrolysis was done at 30 °C. The activity was tested by measuring the initial rates in three samples without inhibitor that allowed to determine the percentage of residual β-lactamase activity in the presence of inhibitors. If the residual activity in the presence of 100 µM inhibitor was <30%, the initial rate conditions were used to study the inhibition in the presence of increasing concentrations of compounds (from 1 to 100 µM) and to determine the competitive inhibition constant Ki. The Hanes linearization of the Henri–Michaelis equation was used, and Ki was calculated on the basis of the following equation, v = (Vmax.S)/[S + Km(1 + I/Ki)]. The assays were performed in triplicates.

[5] = system: E. coli LZ2310(pLBII-VIM-2); assay: microbe, parasite or virus in culture; format: cell-based, Escherichia coli; details: for Restoration of cefoxitin activity (in words): 30 μg cefoxitin disk, compound 1 at 48 μg, EUCAST clinical breakpoints; for zone of inhibition at 40 µg/disc / zone of inhibition at 120 µg/disc: Escherichia coli, read-out: Inhibition Zone Diameter
Protocol: (§4) The potential activity of selected compounds was assessed by the agar disk-diffusion method, according to the CLSI (Clinical Laboratory Standard Institute) recommendations, using Mueller–Hinton medium. The inhibitor (dissolved in DMSO) was added (maximum volume of 15 μL) to a commercially available disk containing a defined amount of a β-lactam antibiotic (30 μg of cefoxitin (Oxoid, Milan, Italy)). After incubation (18 h at 35 °C), the diameter of the growth inhibition zone was measured and compared to that obtained in the absence of inhibitor. DMSO and EDTA (220 μg) were used as negative and positive controls, respectively. Experiments were performed in triplicate.
These tests were performed on an isogenic laboratory strain obtained after transforming Escherichia coli LZ2310 strain with a derivative of the high copy number plasmid pLB-II carrying the cloned blaVIM-2 gene harboring a cloned gene encoding the functional metallo-β-lactamase. Strain LZ2310 is a triple knockout mutant derived from K12 in which the genes encoding for components of the three major efflux pump systems were inactivated (genotype, ∆norE ∆mdfA N43 acrA1) and was used to generate an hyperpermeable background for MBL production and investigate the potential contribution of such mechanisms to inhibitor efflux.

[6] = system: VIM-4-producing laboratory strain; assay: Disk diffusion on VIM-4-producing laboratory strain; format: cell-based
Protocol: as §4

IMP-1 [7] = target: T1, IMP-1; parameters: method as in PMID 32937203; details: in parentheses; 100 μM inhibitor; cited from earlier work
VIM-2 [8] = target: T2, VIM-2; details: Schiff base analogs; read-out: Ki Value VIM-2, hydrazone-like compound (converted); cited from earlier work
NDM-1 [9] = target: T3, NDM-1; parameters: method as in PMID 32937203; details: Schiff base analogs; read-out: Ki Value NDM-1, hydrazone-like compound (converted); cited from earlier work
VIM-4 [10] = target: T5, VIM-4; parameters: method as in PMID 32937203; details: Figure 1; read-out: Ki VIM-4, Schiff base; cited from earlier work
[11] = read-out: Inhibition of VIM-1 (dash)

SMILES | inhibition at 100 µM (IMP-1 [1]) | Ki (VIM-2 [2]) | inhibition at 100 µM (NDM-1 [3]) | inhibition at 100 µM (VIM-1; [11]) | Ki (VIM-4 [4]) | Restoration of cefoxitin activity (in words) [5] | zone of inhibition at 40 µg/disc [5] | Ki (VIM-1) | zone of inhibition at 120 µg/disc [5] | inhibition at 100 µM (L1) | further results
Cc1ccccc1-c1n[nH]c(=S)n1NCc1ccccc1C(=O)O [Compound 2] | < 40% | 8 ± 0.7 µM | < 40% | < 30% | 10 ± 1 µM | did not show any remarkable activity | 11 mm |  |  |  | Ki (CphA): 100 ± 10 µM; Ki (L1): 110 ± 10 µM
O=C(O)c1ccccc1CNn1c(-c2cccc(-c3ccccc3)c2)n[nH]c1=S [Compound 3] |  | 0.24 ± 0.02 µM |  |  | 0.57 ± 0.03 µM | devoid of activity |  | 3.6 ± 0.2 µM | 11 mm |  | Ki (IMP-1 [1]; hydrazine series, read-out: Ki Value IMP-1): 76 ± 13 µM; Ki (NDM-1 [3]; hydrazine series, read-out: Ki Value NDM-1): 8.2 ± 0.7 µM; Restoration of β-lactam activity (in words) [6]: lack of restoration activity
O=C(O)c1ccccc1CNn1c(-c2ccc3ccccc3c2)n[nH]c1=S [Compound 4] | < 40% | 4.2 ± 0.9 µM | < 40% |  | 6.3 ± 0.7 µM | did not show any remarkable activity |  |  | 10 mm | < 30% | inhibition at 100 µM (VIM-1; read-out: Percentage of Inhibition at 100 μM Inhibitor, VIM-1): 32%
O=C(O)c1ccccc1CNn1c(Cc2ccccc2)n[nH]c1=S [Compound 6] | < 40% | 8.5 ± 2.3 µM | < 40% | < 30% |  | did not show any remarkable activity | 10 mm |  |  | < 30% | inhibition at 100 µM (VIM-4 [4]; read-out: Inhibition of VIM-4 (dash)): < 30%
O=C(O)c1ccccc1CNn1c(Cc2ccc3ccccc3c2)n[nH]c1=S [Compound 7] | < 40% | 1.8 ± 0.2 µM | < 40% |  | 4.7 ± 0.3 µM | did not show any remarkable activity |  | 19.5 ± 1.3 µM | 11 mm |  | 
O=C(O)c1ccccc1/C=N/n1c(-c2ccccc2)n[nH]c1=S [JMV4390] |  |  |  |  |  |  |  |  |  |  | Inhibition of IMP-1 (dash in Ki column), corresponding hydrazone-like compound (IMP-1 [7]): -^2 (-) (<40% of inhibition in the presence of 100 μM inhibitor); Ki (VIM-2 [8]): 2700 nM; Ki (NDM-1 [9]): 38 µM; Ki (VIM-4 [10]): 1400 nM
